# Experimental data as given in patent US8471061B2 (priority 2004, dated 2013).
# Where “and” joins values, the source holds several entries; their conditions need not be identical. Identical values can stand only once.
# What was measured:
# radish = experiment: Plant activating effect, foliar application, radish; format: in vivo; settings: 21 days, 12 seeds
# Procedure: After 600 g of upland soil was packed in a porcelain pot of 12 cm in inner diameter, 12 grains of radish seeds were sowed therein, covered with 5 mm in depth of the soil and allowed to grow in a green house. Foliar application treatment was carried out once a day using the following application liquids. Conditions of the leaves 21 days thereafter were observed.
# [1] = Degradation test by sterilization; format: physicochemical; settings: 50 mg heat sterilized, 121° C., 20 minutes, 1.5 kgf/cm^2
# Procedure: Firstly, 50 mg of 5-aminolevulinic acid p-toluenesulfonate or 5-aminolevulinic acid hydrochloride was heat sterilized (121° C., 20 minutes, 1.5 kgf/cm^2). After confirming that there is no change in weight before and after the sterilization, degree of degradation of 5-aminolevulinic acid before and after the sterilization was verified by the method described in a reference (Clin. Chem., 36/8, 1494 (1990)).
# [2] = system: Salmonella typhimurium TA 100, TA 98, TA 1535 and TA 1537 and Escherichia coli WP2 uvrA; experiment: Mutagenicity test (back mutation test) using microorganisms, all strains; format: cell-based
# Procedure: A test was carried out in accordance with the “Standard of Mutagenicity Tests Using Microorganisms” (Ministry of Labor Notification No. 77, 1988) (partial revision by Ministry of Labor Notification No. 67, 1997) and “Regarding the Tests Concerning Novel Chemical Substances and the like” (dated Nov. 21, 2003: Yaku-Shoku-Hatsu No. 1121002, 2003.11.13 Sei-Kyoku, No. 2, Kan-Ho-Ki-Hatsu No. 031121002). […] In the measurement, an inner area of about 80 mm in diameter of a plate of 86 mm in diameter (84 mm in inner diameter) was measured using an automatic colony analyzer (CA-11: manufactured by System Science), and calculated by carrying out area correction and counting loss correction using a personal computer. However, since reliability of the automatic colony analyzer is reduced when the number of colonies is 1,500 or more, 5 points in the plate were manually measured under the stereoscopic microscope to carry out area correction of the average value. […]
# [3] = system: Salmonella typhimurium TA 100; experiment: Back mutation test, TA100; format: cell-based; settings: for number of back mutation, single plates: Phosphate
# Procedure: (§1) A test was carried out in accordance with the “Standard of Mutagenicity Tests Using Microorganisms” (Ministry of Labor Notification No. 77, 1988) (partial revision by Ministry of Labor Notification No. 67, 1997) and “Regarding the Tests Concerning Novel Chemical Substances and the like” (dated Nov. 21, 2003: Yaku-Shoku-Hatsu No. 1121002, 2003.11.13 Sei-Kyoku, No. 2, Kan-Ho-Ki-Hatsu No. 031121002). To 0.1 ml of a solution prepared by dissolving 5% (w/v) of 5-aminolevulinic acid phosphate in distilled water (Wako Pure Chemical Industries), 0.5 ml of 0.1 M sodium-phosphate buffer (pH 7.4) (0.5 ml S9 mix in the case of metabolism activation test) was added, and 0.1 ml of each test strain suspension (5 strains of histidine-less Salmonella typhimurium TA 100, TA 98, TA 1535 and TA 1537 and tryptophan-less Escherichia coli WP2 uvrA were used (Japan Bioassay Research Center)) was further added thereto, followed by pre-incubation at 37° C. for 20 minutes while shaking. After completion of the culturing, 2.0 ml of top agar kept at 45° C. in advance was added thereto and layered on a minimum glucose agar plate medium. In this case, 2 plates were arranged for each dosage. However, 3 plates were arranged for a solvent control (negative control). […] In the measurement, an inner area of about 80 mm in diameter of a plate of 86 mm in diameter (84 mm in inner diameter) was measured using an automatic colony analyzer (CA-11: manufactured by System Science), and calculated by carrying out area correction and counting loss correction using a personal computer. However, since reliability of the automatic colony analyzer is reduced when the number of colonies is 1,500 or more, 5 points in the plate were manually measured under the stereoscopic microscope to carry out area correction of the average value. A dosage setting test was carried out on 7 dosages diluted at a common ratio of 4, using a dosage of 5,000 μg/plate as the maximum which is the maximum dosage defined by the guideline. […] Growth inhibition of the strains by this substance to be tested was not found. […] Thus, this test was carried out by setting 5 dosages diluted at a common ratio of 2, using a dosage of 5,000 μg/plate as the maximum which is the maximum dosage defined by the guideline.
# [4] = system: Escherichia coli WP2 uvrA; experiment: Back mutation test, WP2uvrA; format: cell-based; settings: for number of back mutation, single plates: Phosphate
# Procedure: as §1
# [5] = system: Salmonella typhimurium TA 98; experiment: Back mutation test, TA98; format: cell-based
# Procedure: as §1
smiles,measurement,setting,value
"Cl.NCC(=O)CCC(=O)O [5-aminolevulinic acid hydrochloride, reference compound]",plants judged 0: Abnormality was not found on the leaf surface,radish; 1 ppm in tap water,4 plants
same,plants judged 1: A region discolored to yellow was found on the leaf surface,radish; 1 ppm in tap water,6 plants
same,plants judged 2: A necrotic region was found on the leaf surface,radish; 1 ppm in tap water,2 plants
same,plants judged 0: Abnormality was not found on the leaf surface,radish; 10 ppm in tap water,4 plants
same,plants judged 1: A region discolored to yellow was found on the leaf surface,radish; 10 ppm in tap water,4 plants
same,plants judged 2: A necrotic region was found on the leaf surface,radish; 10 ppm in tap water,4 plants
same,plants judged 0: Abnormality was not found on the leaf surface,radish; 100 ppm in tap water,3 plants
same,plants judged 1: A region discolored to yellow was found on the leaf surface,radish; 100 ppm in tap water,5 plants
same,plants judged 2: A necrotic region was found on the leaf surface,radish; 100 ppm in tap water,4 plants
same,Degradation degree (%),[1],6.6%
"NCC(=O)CCC(=O)O.O=P(O)(O)O [5-aminolevulinic acid phosphate, 5-aminolevulinic Acid Phosphate]",mutation inducing ability,[2],does not have the mutation inducing ability
same,"number of back mutation, mean (in parentheses)","[3]; S9 Mix(+), 313 μg/plate",(134) colonies/plate
same,"number of back mutation, single plates","[3]; S9 Mix(+), 313 μg/plate",146 colonies/plate and 122 colonies/plate
same,"number of back mutation, mean (in parentheses)","[3]; S9 Mix(+), 625 μg/plate",(102) colonies/plate
same,"number of back mutation, single plates","[3]; S9 Mix(+), 625 μg/plate",107 colonies/plate and 96 colonies/plate
same,"number of back mutation, mean (in parentheses)","[3]; S9 Mix(+), 1250 μg/plate",(129) colonies/plate
same,"number of back mutation, single plates","[3]; S9 Mix(+), 1250 μg/plate",128 colonies/plate and 129 colonies/plate
same,"number of back mutation, mean (in parentheses)","[3]; S9 Mix(+), 2500 μg/plate",(106) colonies/plate
same,"number of back mutation, single plates","[3]; S9 Mix(+), 2500 μg/plate",109 colonies/plate and 102 colonies/plate
same,"number of back mutation, mean (in parentheses)","[3]; S9 Mix(+), 5000 μg/plate",(133) colonies/plate
same,"number of back mutation, single plates","[3]; S9 Mix(+), 5000 μg/plate",130 colonies/plate and 136 colonies/plate
same,"number of back mutation, mean (in parentheses)","[3]; S9 Mix(−), 313 μg/plate",(85) colonies/plate
same,"number of back mutation, single plates","[3]; S9 Mix(−), 313 μg/plate",87 colonies/plate and 82 colonies/plate
same,"number of back mutation, mean (in parentheses)","[3]; S9 Mix(−), 625 μg/plate",(90) colonies/plate
same,"number of back mutation, single plates","[3]; S9 Mix(−), 625 μg/plate",84 colonies/plate and 95 colonies/plate
same,"number of back mutation, mean (in parentheses)","[3]; S9 Mix(−), 1250 μg/plate",(99) colonies/plate
same,"number of back mutation, single plates","[3]; S9 Mix(−), 1250 μg/plate",84 colonies/plate and 114 colonies/plate
same,"number of back mutation, mean (in parentheses)","[3]; S9 Mix(−), 2500 μg/plate",(79) colonies/plate
same,"number of back mutation, single plates","[3]; S9 Mix(−), 2500 μg/plate",76 colonies/plate and 82 colonies/plate
same,"number of back mutation, mean (in parentheses)","[3]; S9 Mix(−), 5000 μg/plate",(107) colonies/plate
same,"number of back mutation, single plates","[3]; S9 Mix(−), 5000 μg/plate",115 colonies/plate and 99 colonies/plate
same,"number of back mutation, mean (in parentheses)","[4]; S9 Mix(+), 313 μg/plate",(24) colonies/plate
same,"number of back mutation, single plates","[4]; S9 Mix(+), 313 μg/plate",31 colonies/plate and 17 colonies/plate
same,"number of back mutation, mean (in parentheses)","[4]; S9 Mix(+), 625 μg/plate",(32) colonies/plate
same,"number of back mutation, single plates","[4]; S9 Mix(+), 625 μg/plate",40 colonies/plate and 24 colonies/plate
same,"number of back mutation, mean (in parentheses)","[4]; S9 Mix(+), 1250 μg/plate",(32) colonies/plate
same,"number of back mutation, single plates","[4]; S9 Mix(+), 1250 μg/plate",34 colonies/plate and 29 colonies/plate
same,"number of back mutation, mean (in parentheses)","[4]; S9 Mix(+), 2500 μg/plate",(25) colonies/plate
same,"number of back mutation, single plates","[4]; S9 Mix(+), 2500 μg/plate",23 colonies/plate and 27 colonies/plate
same,"number of back mutation, mean (in parentheses)","[4]; S9 Mix(+), 5000 μg/plate",(28) colonies/plate
same,"number of back mutation, single plates","[4]; S9 Mix(+), 5000 μg/plate",25 colonies/plate and 30 colonies/plate
same,"number of back mutation, mean (in parentheses)","[4]; S9 Mix(−), 313 μg/plate",(31) colonies/plate
same,"number of back mutation, single plates","[4]; S9 Mix(−), 313 μg/plate",25 colonies/plate and 36 colonies/plate
same,"number of back mutation, mean (in parentheses)","[4]; S9 Mix(−), 625 μg/plate",(28) colonies/plate
same,"number of back mutation, single plates","[4]; S9 Mix(−), 625 μg/plate",27 colonies/plate and 28 colonies/plate
same,"number of back mutation, mean (in parentheses)","[4]; S9 Mix(−), 1250 μg/plate",(31) colonies/plate
same,"number of back mutation, single plates","[4]; S9 Mix(−), 1250 μg/plate",28 colonies/plate and 33 colonies/plate
same,"number of back mutation, mean (in parentheses)","[4]; S9 Mix(−), 2500 μg/plate",(27) colonies/plate
same,"number of back mutation, single plates","[4]; S9 Mix(−), 2500 μg/plate",25 colonies/plate and 28 colonies/plate
same,"number of back mutation, mean (in parentheses)","[4]; S9 Mix(−), 5000 μg/plate",(31) colonies/plate
same,"number of back mutation, single plates","[4]; S9 Mix(−), 5000 μg/plate",25 colonies/plate and 36 colonies/plate
same,"number of back mutation, mean (in parentheses)","[5]; S9 Mix(+), 313 μg/plate",(12) colonies/plate
same,"number of back mutation, single plates","[5]; S9 Mix(+), 313 μg/plate, Phosphate",13 colonies/plate and 11 colonies/plate
same,"number of back mutation, mean (in parentheses)","[5]; S9 Mix(+), 625 μg/plate",(9) colonies/plate
same,"number of back mutation, single plates","[5]; S9 Mix(+), 625 μg/plate",9 colonies/plate
same,"number of back mutation, mean (in parentheses)","[5]; S9 Mix(+), 1250 μg/plate",(21) colonies/plate
same,"number of back mutation, single plates","[5]; S9 Mix(+), 1250 μg/plate, Phosphate",14 colonies/plate and 27 colonies/plate
same,"number of back mutation, mean (in parentheses)","[5]; S9 Mix(+), 2500 μg/plate",(11) colonies/plate
same,"number of back mutation, mean (in parentheses)","[5]; S9 Mix(+), 5000 μg/plate",(21) colonies/plate
same,"number of back mutation, single plates","[5]; S9 Mix(+), 5000 μg/plate, Phosphate",20 colonies/plate and 21 colonies/plate
same,"number of back mutation, mean (in parentheses)","[5]; S9 Mix(−), 313 μg/plate",(8) colonies/plate
same,"number of back mutation, single plates","[5]; S9 Mix(−), 313 μg/plate, Phosphate",9 colonies/plate and 7 colonies/plate
same,"number of back mutation, mean (in parentheses)","[5]; S9 Mix(−), 625 μg/plate",(9) colonies/plate
same,"number of back mutation, mean (in parentheses)","[5]; S9 Mix(−), 1250 μg/plate",(6) colonies/plate
same,"number of back mutation, mean (in parentheses)","[5]; S9 Mix(−), 2500 μg/plate",(16) colonies/plate
same,"number of back mutation, single plates","[5]; S9 Mix(−), 2500 μg/plate, Phosphate",15 colonies/plate and 17 colonies/plate
same,"number of back mutation, mean (in parentheses)","[5]; S9 Mix(−), 5000 μg/plate",(8) colonies/plate
same,"number of back mutation, single plates","[5]; S9 Mix(−), 5000 μg/plate, Phosphate",9 colonies/plate and 7 colonies/plate
